Data reported in patent US20260297042A1, “BIARYLAMIDE DERIVATIVES AND THEIR USE AS PKMYT1 INHIBITORS” (CANCER RESEARCH TECHNOLOGY LIMITED, priority 2023, published 2026).
Structures can show the parent of a compound that is named as a salt.

Key:
[1] = molecular target: T1, WEE1 (Homo sapiens, UniProt P30291); assay: Selectivity versus WEE1 assay (ADP-Glo enzymatic assay); format: biochemical; conditions: for IC50: WEE1 15 nM, ADP-Glo, banded values; for PKMYT1 vs. WEE1 selectivity: fold difference in selectivity for PKMYT1 over WEE1, banded
T1 construct: purchased Thermo Fisher PR7373A
T1 sequence (P30291 whole entry): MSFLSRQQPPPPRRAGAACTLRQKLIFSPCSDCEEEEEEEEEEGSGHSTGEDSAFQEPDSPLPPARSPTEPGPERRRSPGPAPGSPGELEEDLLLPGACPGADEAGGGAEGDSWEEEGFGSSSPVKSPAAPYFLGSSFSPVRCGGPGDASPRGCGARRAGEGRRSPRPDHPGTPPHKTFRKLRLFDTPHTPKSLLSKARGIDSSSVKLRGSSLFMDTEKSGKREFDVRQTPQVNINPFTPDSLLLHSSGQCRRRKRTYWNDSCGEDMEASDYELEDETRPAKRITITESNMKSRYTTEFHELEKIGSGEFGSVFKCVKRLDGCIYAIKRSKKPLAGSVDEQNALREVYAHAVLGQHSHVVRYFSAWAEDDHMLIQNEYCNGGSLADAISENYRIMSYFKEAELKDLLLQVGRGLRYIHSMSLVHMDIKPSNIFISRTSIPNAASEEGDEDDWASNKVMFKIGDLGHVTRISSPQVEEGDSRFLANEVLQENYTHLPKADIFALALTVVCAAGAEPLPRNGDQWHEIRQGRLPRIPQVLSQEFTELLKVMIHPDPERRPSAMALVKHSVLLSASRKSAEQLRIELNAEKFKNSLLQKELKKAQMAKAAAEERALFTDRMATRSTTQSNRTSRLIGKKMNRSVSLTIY
Method in brief: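 15 nM WEE1, 30 µM ATP, 50 mM HEPES pH 7.5, 10 mM MgCl2, 1 mM EGTA, 0.01% Brij-35, 1% DMSO; 60 min, 26° C; ADP-Glo luminescence; IC50 from curve fit, replicates within 3-fold, r2 >0.9.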

[2] = molecular target: T2, Human PKMYT1 (Homo sapiens, UniProt Q99640); assay: PKMYT1 biochemical ADP-Glo enzymatic assay; conditions: PKMYT1 kinase domain 15 nM; ADP-Glo; banded values
T2 construct: Human PKMYT1 75-362 was cloned as a TEV cleavable 6xHis fusion; 6xHis (TEV cleavable) (cleaved yes); made in house; host or cells: bacterial cells
T2 sequence (Q99640 75-362): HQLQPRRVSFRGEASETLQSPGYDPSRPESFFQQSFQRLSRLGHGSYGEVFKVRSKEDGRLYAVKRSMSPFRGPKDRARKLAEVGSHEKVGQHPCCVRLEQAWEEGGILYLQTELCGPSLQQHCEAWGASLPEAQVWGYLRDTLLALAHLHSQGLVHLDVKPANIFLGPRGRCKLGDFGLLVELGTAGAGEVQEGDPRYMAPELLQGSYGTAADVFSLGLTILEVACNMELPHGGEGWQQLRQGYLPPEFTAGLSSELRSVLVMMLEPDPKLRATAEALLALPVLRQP
Method in brief: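 PKMYT1 75-362 (His-cleaved, bacterial) 15 nM; ATP 500 µM; HEPES pH 7.5, MgCl2, EGTA, Brij-35, 1% DMSO; 60 min, 26 °C; ADP-Glo Max luminescence; 10-pt 3-fold titration → IC50; replicates within 3-fold, r2 >0.9.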

Row | Structure (SMILES) | IC50 [1] [nM] | PKMYT1 vs. WEE1 selectivity [1] | IC50 [2] [nM]
1 | Cc1ccc(O)c(C)c1NC(=O)c1cnc(Nc2cn(C)nc2C)s1 [BAA-521, 2-((1,3-dimethyl-1H-pyrazol-4-yl)amino)-N-(3-hydroxy-2,6-dimethylphenyl)thiazole-5-carboxamide] | > 11000 | X (100-<1000 fold) | 50 to 1000
2 | Cc1cn(CC(=O)N(C)CCO)nc1Nc1ncc(C(=O)Nc2c(C)ccc(O)c2C)s1 [BAA-524, N-(3-Hydroxy-2.6-dimethylphenyl)-2-((1-(2-((2-hydroxyethyl)(methyl)amino)-2-oxoethyl)-4-methyl-1H-pyrazol-3-yl)amino)thiazole-5-carboxamide] | > 11000 | Y (1000-5000 fold) | < 50
3 | Cc1ccc(O)c(C)c1NC(=O)c1cnc(Nc2ccccc2C2CC2)s1 [BAA-526, 2-((2-cyclopropylphenyl)amino)-N-(3-hydroxy-2,6-dimethylphenyl)thiazole-5-carboxamide] | > 11000 | X (100-<1000 fold) | 50 to 1000
4 | Cc1ccc(O)c(C)c1NC(=O)c1cnc(Nc2cnn(CC(=O)N3CCCC3)c2)s1 [BAA-527, N-(3-hydroxy-2,6-dimethylphenyl)-2-((1-(2-oxo-2-(pyrrolidin-1-yl)ethyl)-1H-pyrazol-4-yl)amino)thiazole-5-carboxamide] | > 11000 | W (10-<100 fold) | 50 to 1000
5 | COc1ccccc1Nc1ncc(C(=O)Nc2c(C)ccc(O)c2C)s1 [BAA-528, N-(3-hydroxy-2,6-dimethylphenyl)-2-((2-methoxyphenyl)amino)thiazole-5-carboxamide. TFA salt] | > 11000 | X (100-<1000 fold) | 50 to 1000
6 | Cc1ccc(O)c(C)c1NC(=O)c1cnc(Nc2cccc3c2OCCO3)s1 [BAA-529, 2-((2,3-dihydrobenzo[b][1,4]dioxin-5-yl)amino)-N-(3-hydroxy-2,6-dimethylphenyl)thiazole-5-carboxamide. TFA salt] | > 11000 | X (100-<1000 fold) | 50 to 1000
7 | Cc1ccc(O)c(C)c1NC(=O)c1cnc(Nc2cccc3c2OCC3)s1 [BAA-530, 2-((2,3-dihydrobenzofuran-7-yl)amino)-N-(3-hydroxy-2,6-dimethylphenyl)thiazole-5-carboxamide. TFA salt] | > 11000 | X (100-<1000 fold) | 50 to 1000
8 | Cc1ccc(O)c(C)c1NC(=O)c1cnc(Nc2cccc3ccoc23)s1 [BAA-531, 2-(benzofuran-7-ylamino)-N-(3-hydroxy-2,6-dimethylphenyl)thiazole-5-carboxamide] | > 11000 | Y (1000-5000 fold) | 50 to 1000
9 | CCC(C(=O)N1CCN(C)CC1)n1ccc(Nc2ncc(C(=O)Nc3c(C)ccc(O)c3C)s2)n1 (stereo not drawn) [BAA-533, N-(3-hydroxy-2,6-dimethylphenyl)-2-((1-(1-(4-methylpiperazin-1-yl)-1-oxobutan-2-yl)-1H-pyrazol-3-yl)amino)thiazole-5-carboxamide] | > 11000 | Y (1000-5000 fold) | < 50
10 | Cc1ccc(O)c(C)c1NC(=O)c1cnc(Nc2ccn(C(C)C(=O)N3CCN(C)CC3)n2)s1 (stereo not drawn) [BAA-534, N-(3-hydroxy-2,6-dimethylphenyl)-2-((1-(1-(4-methylpiperazin-1-yl)-1-oxopropan-2-yl)-1H-pyrazol-3-yl)amino)thiazole-5-carboxamide] | > 11000 | Y (1000-5000 fold) | < 50
11 | CCOc1ccccc1Nc1ncc(C(=O)Nc2c(C)ccc(O)c2C)s1 [BAA-539, 2-((2-ethoxyphenyl)amino)-N-(3-hydroxy-2,6-dimethylphenyl)thiazole-5-carboxamide. TFA salt] | > 11000 | X (100-<1000 fold) | 50 to 1000

Continued, values first:

Row | IC50 [1] [nM] | PKMYT1 vs. WEE1 selectivity [1] | IC50 [2] [nM] | Structure (SMILES)
12 | > 11000 | X (100-<1000 fold) | < 50 | Cc1c(O)ccc(Br)c1NC(=O)c1cnc(Nc2ccn(CC(=O)N3CCCC3)n2)s1 [BAA-519, N-(6-Bromo-3-hydroxy-2-methyl-phenyl)-2-[[1-(2-oxo-2-pyrrolidin-1-yl-ethyl)pyrazol-3-yl]amino]thiazole-5-carboxamide]
13 | > 11000 | X (100-<1000 fold) | 50 to 1000 | Cc1ccc(O)c(C)c1NC(=O)c1cnc(Nc2cnn(C)c2C)s1 [BAA-520, 2-((1,5-dimethyl-1H-pyrazol-4-yl)amino)-N-(3-hydroxy-2,6-dimethylphenyl)thiazole-5-carboxamide]
14 | 1000 to 11000 | X (100-<1000 fold) | < 50 | Cc1cn(CC(=O)N(C)CCS(C)(=O)=O)nc1Nc1ncc(C(=O)Nc2c(C)ccc(O)c2C)s1 [BAA-522, N-(3-hydroxy-2,6-dimethylphenyl)-2-((4-methyl-1-(2-(methyl(2-(methylsulfonyl)ethyl)amino)-2-oxoethyl)-1H-pyrazol-3-yl)amino)thiazole-5-carboxamide]
15 | 1000 to 11000 | X (100-<1000 fold) | < 50 | CCN(CCC#N)C(=O)Cn1cc(C)c(Nc2ncc(C(=O)Nc3c(C)ccc(O)c3C)s2)n1 [BAA-532, 2-((1-(2-((2-cyanoethyl)(ethyl)amino)-2-oxoethyl)-4-methyl-1H-pyrazol-3-yl)amino)-N-(3-hydroxy-2,6-dimethylphenyl)thiazole-5-carboxamide]
16 | 1000 to 11000 | X (100-<1000 fold) | < 50 | CCN(CCO)C(=O)Cn1cc(C)c(Nc2ncc(C(=O)Nc3c(C)ccc(O)c3C)s2)n1 [BAA-535, 2-((1-(2-(Ethyl(2-hydroxyethyl)amino)-2-oxoethyl)-4-methyl-1H-pyrazol-3-yl)amino)-N-(3-hydroxy-2,6-dimethylphenyl)thiazole-5-carboxamide]
17 | 1000 to 11000 | X (100-<1000 fold) | 50 to 1000 | Cc1ccc(O)c(C)c1NC(=O)c1cnc(Nc2cnn(C)c2)s1 [BAA-536, N-(3-hydroxy-2,6-dimethylphenyl)-2-((1-methyl-1H-pyrazol-4-yl)amino)thiazole-5-carboxamide hydrochloride]
18 | 1000 to 11000 | W (10-<100 fold) | 50 to 1000 | Cc1ccc(O)c(C)c1NC(=O)c1cnc(Nc2cc(C(=O)N3CCOCC3)n(C)n2)s1 [BAA-537, N-(3-hydroxy-2,6-dimethylphenyl)-2-((1-methyl-5-(morpholine-4-carbonyl)-1H-pyrazol-3-yl)amino)thiazole-5-carboxamide]
19 | 1000 to 11000 | X (100-<1000 fold) | < 50 | COC1CCN(C(=O)Cn2cc(C)c(Nc3ncc(C(=O)Nc4c(C)ccc(O)c4C)s3)n2)C1 (stereo not drawn) [BAA-538, N-(3-hydroxy-2,6-dimethylphenyl)-2-((1-(2-(3-methoxypyrrolidin-1-yl)-2-oxoethyl)-4-methyl-1H-pyrazol-3-yl)amino)thiazole-5-carboxamide]
20 | 1000 to 11000 | X (100-<1000 fold) | < 50 | Cc1ccc(O)c(C)c1NC(=O)c1cnc(Nc2cc(C)n(CC(C)O)n2)s1 (stereo not drawn) [BAA-540, N-(3-hydroxy-2,6-dimethylphenyl)-2-((1-(2-hydroxypropyl)-5-methyl-1H-pyrazol-3-yl)amino)thiazole-5-carboxamide]
